In publication PMC11604428, “UPLC-ESI/MS^n metabolic profiling of Cedrela odorata L. and Toona ciliata M. Roem and in vitro investigation of their anti-diabetic activity supported with molecular docking studies” (Frontiers in Chemistry, 2024):

Columns and labels:
[1] = tested on: streptozotocin-induced diabetic mice; parameters: method as in Lee et al., 2010; Jang et al., 2009; Jang et al., 2010; conditions: streptozotocin-nicotinamide-induced, streptozotocin + high-fat diet and streptozotocin-induced diabetic mice, ref Lee et al., 2010, Jang et al., 2009; cited from earlier work
[2] = tested on: α-amylase; test: α-Amylase inhibition assay; type: biochemical; conditions: mean ± SD, triplicate
Method: The α-amylase inhibitory activities of the tested Cedrela extracts were determined according to the standard published procedure with minor amendments ([Kazeem et al., 2013]). The enzyme solution was prepared by dissolving α-amylase in 20 mM phosphate buffer (pH = 6.9) at a concentration of 0.50 mg/mL. Then, 1 mL of different concentrations of the tested extract (0.01–100 μg/mL) was mixed with 1 mL of enzyme solution and allowed to sit at room temperature for 10 min. After incubation, 1 mL of 0.50% starch solution was included to the mixture and further incubated at room temperature for 10 min. The reaction was then ended by addition of 3,5-dinitrosalicylic acid (2 mL) and then heating the reaction mixture in a boiling water bath for 5 min. After cooling, the absorbance of the mixture was colorimetrically determined at 565 nm. Pioglitazone was used as a standard drug.
The assays were performed in triplicates, and the obtained values are stated as mean ± SD. For the in vitro investigation of α-amylase and α-glucosidase inhibitory properties, the IC50 was obtained from the graph plots of the dose–response curves at each oil concentration via Graph Pad Prism® software (San Diego, CA, United States).

[3] = target: α-glucosidase (Saccharomyces cerevisiae, UniProt P53341); parameters: method as in Shen et al., 2023; conditions: ref Shen et al., 2023; cited from earlier work
α-glucosidase, sequence (P53341 whole entry): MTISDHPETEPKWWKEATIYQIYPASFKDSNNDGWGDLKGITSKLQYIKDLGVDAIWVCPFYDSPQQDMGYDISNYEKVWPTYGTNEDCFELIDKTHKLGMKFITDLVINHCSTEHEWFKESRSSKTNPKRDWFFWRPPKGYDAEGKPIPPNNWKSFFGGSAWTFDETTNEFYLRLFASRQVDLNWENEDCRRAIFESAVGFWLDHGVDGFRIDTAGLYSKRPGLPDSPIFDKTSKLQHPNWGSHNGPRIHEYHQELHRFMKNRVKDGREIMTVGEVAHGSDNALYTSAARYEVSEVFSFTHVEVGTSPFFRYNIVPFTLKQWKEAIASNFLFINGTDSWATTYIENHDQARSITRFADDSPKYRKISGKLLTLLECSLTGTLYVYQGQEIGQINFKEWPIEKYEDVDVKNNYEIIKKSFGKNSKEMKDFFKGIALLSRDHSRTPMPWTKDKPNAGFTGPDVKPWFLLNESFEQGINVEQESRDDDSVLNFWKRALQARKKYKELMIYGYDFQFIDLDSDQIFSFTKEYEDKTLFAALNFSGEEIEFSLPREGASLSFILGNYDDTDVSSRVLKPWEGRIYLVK

[4] = tested on: α-amylase; parameters: method as in Shen et al., 2023; conditions: ref Shen et al., 2023; cited from earlier work
[5] = tested on: C57BL/KsJ-db/db mice; parameters: method as in Jung et al., 2006; conditions: ref Jung et al., 2006; cited from earlier work

C[C@H]1[C@H](C)CC[C@]2(C(=O)O)CC[C@]3(C)C(=CC[C@@H]4[C@@]5(C)CC[C@H](O)C(C)(C)[C@@H]5CC[C@]43C)[C@H]12 [Ursolic acid]
effect on blood glucose levels [1]: positive effect on reducing blood glucose levels

CCc1ccc(CCOc2ccc(CC3SC(=O)NC3=O)cc2)nc1 (stereo not shown) [Pioglitazone]
α-Amylase inhibition (%) ([2]; concentration 0.01 µg/mL): 12.50 ± 2.05% | α-Amylase inhibition (%) ([2]; concentration 0.10 µg/mL): 27.70 ± 1.28% | α-Amylase inhibition (%) ([2]; concentration 1.00 µg/mL): 45.40 ± 2.45% | α-Amylase inhibition (%) ([2]; concentration 10.00 µg/mL): 80.60 ± 0.23% | α-Amylase inhibition (%) ([2]; concentration 100.00 µg/mL): 91.70 ± 1.05% | α-Amylase inhibition IC50 [2]: 2.17 ± 0.23 µg/mL

O=c1c(O)c(-c2ccc(O)c(O)c2)oc2cc(O)cc(O)c12 [quercetin]
inhibition of α-glucosidase activity [3]: markedly inhibited | inhibition of α-amylase activity [4]: markedly inhibited

O=C(O)/C=C/c1ccc(O)c(O)c1 [Caffeic acid]
anti-hyperglycemic effect [5]: anti-hyperglycemic properties
